From patent US20090253692A1, “CRYSTALLINE FORM OF N-[[4-FLUORO-2-(5-METHYL-1H-1,2,4-TRIAZOL-1-YL)PHENYL]METHYL]-4,6,7,9-TETRAHYDRO-3-HYDROXY-9,9-DIMETHYL-4-OXO-PYRIMIDO[2,1-C][1,4]OXAZINE-2-CARBOXAMIDE, SODIUM SALT MONOHYDRATE” (Bristol-Myers Squibb Company, priority 2008, published 2009)
Entries after “also recorded” stand apart in the source; their conditions may differ. Where two headings read alike, the source gives them in different places.

Experiments:
[1] = Dust hazard analysis: ignition sensitivity of dust cloud; type: physicochemical; conditions: for Susceptibility to ignition as a dust cloud: result in words
Text: (§1) “μm” means micrometer. “gm” means gram. “cc” means cubic centimeter. “gm/cc” means gram per cubic centimeter. “Kst” is the deflagration index of a dust expressed in bar-meter per second. “bar-m/s” means bar meter per sec. “bar/s” means bar per second. “mJ” means millijoules. “St” is the geneal classification designation for explosible dusts: “St-2” is classified as a strong explosion designation and has Kst>200 bar-m/sec; “St-1” is not classified as a strong explosion and has Kst<200 bar-m/sec.
(§2) Twenty liter sphere testing (see Proust, C.; Accorsi, A.; Dupont, L. Journal of Loss prevention in the Process Industries, vol. 20, 2007.) places the sample in the St-2 (strong explosion) class with a Kst value of 238 bar-m/s.
(§3) Therefore, twenty liter sphere testing was not required.

[2] = Bulk and true densities; type: physicochemical
[3] = Dust hazard analysis: charge decay time estimation; type: physicochemical
[4] = Particle size analysis using an Aerosizer instrument; type: physicochemical
[5] = Moisture content by weight loss in vacuum oven; type: physicochemical; conditions: 5 gm in a vacuum oven at 60° C. for six hours
Method: Particle analysis. […] The sample was checked for moisture content by placing 5 gm in a vacuum oven at 60° C. for six hours and checking weight loss. The free acid lost 0.22% of its initial weight. […] The sample was checked for moisture content by placing 5 gm in a vacuum oven at 60° C. for six hours and checking weight loss. The salt monohydrate lost 0.18% of its initial weight.

[6] = Dust hazard analysis: explosion severity (twenty liter sphere testing), Kst and St classification; type: physicochemical; conditions: for Explosion Severity (Max Pressure) / Explosion Severity (Max rate): dust explosion risk; for St Classification: general classification designation for explosible dusts
Text: as §1, §2, §3

[7] = biological target: HIV integrase (Human immunodeficiency virus type 1 group M subtype B, UniProt P04585); conditions: result in words, see U.S. Pat. No. 7,176,196, sodium salt monohydrate, cited from earlier work

| Structure (SMILES) | Susceptibility to ignition as a dust cloud [1] | Bulk density [2] [gm/cc] | True density [2] [gm/cc] | Charge Decay Time Estimation [3] [h] | Particle size, 95% of sample below [4] [μm] | Particle size, mean value [4] [μm] | Moisture content: loss of initial weight [5] [%] | Kst value ([6]; deflagration index of a dust) [bar · m/s] | Explosion Severity (Max Pressure) [6] [bar] | Explosion Severity (Max rate) [6] [bar/s] | St Classification [6] | Kst value ([6]; twenty liter sphere testing) [bar-m/s] | Minimum Ignition Energy ([1]; dust explosion risk) [mJ] | Minimum Ignition Temperature ([1]; dust explosion risk) [°C] | Binding to and antagonism / inhibition of HIV integrase ([7]; listed as Compound I) | Binding to and antagonism / inhibition of HIV integrase [7] | Explosion characteristics ([6]; result in words) |
| --- | --- | --- | --- | --- | --- | --- | --- | --- | --- | --- | --- | --- | --- | --- | --- | --- | --- |
| Cc1ncnn1-c1cc(F)ccc1CNC(=O)c1nc2n(c(=O)c1O)CCOC2(C)C [Free acid] | extremely susceptible to igniting as a dust cloud; also recorded: high susceptibility to ignition and risk for explosion | 0.34 | 1.40 | 5.5 | < 32.9 | 16.3 | 0.22 | 238 | 8.2 | 878 | St-2 (“St-2” is classified as a strong explosion designation and has Kst>200 bar-m/sec) | 238 |  |  |  |  |  |
| Cc1ncnn1-c1cc(F)ccc1CNC(=O)c1nc2n(c(=O)c1[O-])CCOC2(C)C.[Na+] [Compound (I), N-[[4-fluoro-2-(5-methyl-1H-1,2,4-triazol-1-yl)phenyl]methyl]-4,6,7,9-tetrahydro-3-hydroxy-9,9-dimethyl-4-oxo-pyrimido[2,1-c][1,4]oxazine-2-carboxamide, sodium salt monohydrate] | low susceptibility to ignition as a dust cloud | 0.42 | 1.53 | 0.55 | < 33.6 | 14.8 | 0.18 |  | 1.5 | 154 | St-1 (“St-1” is not classified as a strong explosion and has Kst<200 bar-m/sec) |  | >500 | >600 | demonstrated inhibition of HIV integrase | potently bind to and act as an antagonist to HIV integrase | weak to moderate explosion characteristics |
